The record followed here is patent US12187662B2, “FOXM1 inhibitor compositions and methods of using the same” (The Board of Trustees of the University of Illinois, priority 2018, dated 2025).

In one data set the test system is DT22 cells. Description: Cell proliferation assay (WST-1), DT22. The data set is classed as cell-based, human. As to conditions: Homo sapiens, DT-22, inhibition of cell proliferation. As to the method: (§1) All cells were tested for mycoplasma using Real-Time PCR Mycoplasma Detection Kit (Akron Biotech, Boca Raton, FL).
(§2) All assays were performed in triplicate.
For orientation: Tetrazolium dyes change colour on reduction, which living cells bring about.

A further data set concerns MDA-MB-231 cells. Description: Cell proliferation assay (WST-1), MDA-MB-231. The data set is classed as cell-based, human. Conditions: Homo sapiens. How it is done:
as §1, §2

In another data set the test system is MCF7 cells. Description: Cell proliferation assay (WST-1), MCF7. The class given is cell-based, human. How it is done:
as §1, §2

A short description of data set [1]: Pharmacokinetic studies in mice after single s.c. or oral dose.
Another data set concerns breast cancer cell lines. Description: Proliferation of breast cancer cell lines (panel, line not specified). The class given is cell-based, human. As to conditions: cell line not specified or several lines. As to the method: as §1, §2
Where [2] appears, read: MDA-MB-231, inhibition of cell proliferation, read-out: IC50 MDA-MB-231.
[3] abbreviates: Homo sapiens, MCF7, inhibition of cell proliferation, read-out: IC50 MCF7.

Like-named read-outs stand apart in the source and are kept apart here.

As a reminder, the IC50 is the concentration needed to halve the response being measured. Consider `C[N+]1(CCCCCOc2ccc(C(=C3C4CC5CC(C4)CC3C5)c3ccc(OCCCCC[N+]4(C)CCCCCC4)cc3)cc2)CCCCCC1` [NB-89, 1,1′-((((((5r,7r)-adamantan-2-ylidene)methylene)bis(4,1-phenylene))bis(oxy))bis(pentane-5,1-diyl))bis(1-methylazepan-1-ium) diiodide], for which the concentration for half-maximal inhibition (IC50) in the data set on DT22 cells was found to be 1100 nM; with MDA-MB-231 cells (setting [2]), 500 nM; in the data set on MCF7 cells (setting [3]) it was 600 nM; in the data set with MCF7 cells (inhibition of cell proliferation, read-out: IC50 MCF7) it was 700 nM.
The term half-life denotes the time needed for the level to fall by half in the phase considered. Higher therefore signals slow loss. As usually defined, the AUC(0-t) is the area under the concentration-time curve up to a stated or last time point. A higher AUC(0-t) goes with more exposure. On to `C[N+]1(CCCCCCOc2ccc(C(c3ccc(OCCCCCC[N+]4(C)CCCCC4)cc3)=C3C4C[C@H]5C[C@@H](C4)C[C@H]3C5)cc2)CCCCC1` [NB-71, 1,1′-((((((5r,7r)-adamantan-2-ylidene)methylene)bis(4,1-phenylene))bis(oxy))bis(hexane-6,1-diyl))bis(1-methylpiperidin-1-ium) diodide], for which the concentration for half-maximal inhibition (IC50) with DT22 cells came out at 800 nM; in the data set on MDA-MB-231 cells (MDA-MB-231, read-out: IC50 MDA-MB-231), 500 nM; with MCF7 cells (Homo sapiens, MCF7, read-out: IC50 MCF7) it was 1100 nM. Moreover, the half-life in data set [1] (female, CD-1, mouse, plasma, sc) was 25 to 40 h; in data set [1] (female, CD-1, mouse, plasma, sc, 60 mg/kg), 119 h. In data set [1] (female, CD-1, mouse, plasma, sc, 60 mg/kg, PK s.c. AUC0-48, mice, 60 mg/kg s.c.), this compound registered an AUC(0-t) of 364 µM·h. Further, in data set [1] (mice, oral, doses of FIGS. 6A-6B), the “Blood levels after oral administration” value was “very low levels”. Also, in data set [1] (mice, s.c., doses of FIGS. 6A-6B), the “Blood levels after s.c. injection” value is recorded as “very high blood levels”.
On to `C[N+]1(CCCCCOc2ccc(C(=C3C4CC5CC(C4)CC3C5)c3ccc(OCCCCC[N+]4(C)CCCCC4)cc3)cc2)CCCCC1` [NB-88, 1,1′-((((((5r,7r)-adamantan-2-ylidene)methylene)bis(4,1-phenylene))bis(oxy))bis(pentane-5,1-diyl))bis(1-methylpiperidin-1-ium) diiodide], for which the 50% inhibitory concentration (IC50) in the data set with DT22 cells worked out at 1200 nM; in the data set with MDA-MB-231 cells (setting [2]), 700 nM; in the data set with MCF7 cells (setting [3]) it was 1700 nM.
As for `C[N+]1(CCCCOc2ccc(C(=C3C4CC5CC(C4)CC3C5)c3ccc(OCCCC[N+]4(C)CCCCCC4)cc3)cc2)CCCCCC1` [NB-87, 1,1′-((((((5r,7r)-adamantan-2-ylidene)methylene)bis(4,1-phenylene))bis(oxy))bis(butane-4,1-diyl))bis(1-methylazepan-1-ium) diiodide], the figures for the IC50 in the data set on DT22 cells, in the data set with MDA-MB-231 cells (setting [2]) and with MCF7 cells (setting [3]) were 1500 nM, 900 nM and 1700 nM, respectively.
Turning to `CN1CCN(CCCCCCOc2ccc(C(=C3C4CC5CC(C4)CC3C5)c3ccc(OCCCCCCN4CCN(C)CC4)cc3)cc2)CC1` [NB-66, 4,4′-((((((5r,7r)-adamantan-2-ylidene)methylene)bis(4,1-phenylene))bis(oxy))bis(hexane-6,1-diyl))bis(1-methylpiperazine)], the “PK p.o. AUC0-48” value in data set [1] (mice, 60 mg/kg p.o.) is on record as “too low to measure”. For the same compound, in data set [1] (mice, 60 mg/kg s.c.), the “PK s.c. AUC0-48” value amounted to 6.1 µM·h and the “PK s.c. t1/2” value came out at 45.6 h. The “IC50 for inhibition of proliferation of breast cancer cell lines” value with breast cancer cell lines was “submicromolar”. Besides, the IC50 in the data set with MCF7 cells (setting [3]) is 800 nM.
